Test results: paper PMC10577883, “Design and Optimization of Novel Competitive, Non-peptidic, SARS-CoV-2 M^pro Inhibitors” (ACS Medicinal Chemistry Letters, 2023)
“And” between values parts separate entries of the source, which are not always exact repeats. Identical values can stand only once. Like-named read-outs stand apart in the source and are kept apart here.

What was measured:
SARS-CoV-2 Mpro = details: cited from earlier work
SARS-CoV-2 Mpro (3CLpro) = SARS-CoV-2 Mpro (3CLpro) (Severe acute respiratory syndrome coronavirus 2, UniProt P0DTD1); experiment: SARS-CoV-2 recombinant protease enzymatic assay (FRET); assay type: biochemical; details: recombinant Mpro, FRET peptide substrate
[1] = tested on: SARS-CoV-2-Nluc reporter virus; experiment: microbe, parasite or virus in culture; assay type: cell-based; details: for EC50: Severe acute respiratory syndrome coronavirus 2, VeroE6/TMPRSS2 cells, parentheses denote 95% confidence intervals
in vitro = details: chlorocebus sabaeus
[2] = Pharmacokinetics after single IV and PO administration; assay type: in vivo, Male Sprague Dawley rats; details: male, Sprague-Dawley, rat, plasma
Experimental: (§1) To this end, 36 was studied in male Sprague–Dawley rats following a single intravenous dose at 0.25 mg/kg and an oral dose at 0.5 mg/kg (SI, Table S18).
Figure S16: Metabolite identification study of Compound 43 in liver microsomes using liquid chromatography coupled to high resolution mass spectrometry (LC-HRMS). The identification of metabolite Compound 43 M1 […]
MS analysis was performed using full scan from a mass range of 100-700 m/z at 60k resolution with data dependent MS/MS and MSn programs enabled for the top 5 ions detected for each scan. Compounds are detected based on their MS1 precursor ion accurate mass m/z and identified with matching theoretical and observed accurate mass MS1 ions with interpretation of accurate mass MS/MS spectra from expected […]
Table S18: Pharmacokinetic data of Compound 36 in Male Sprague Dawley rats following a single intravenous and oral administration (Dose: 0.25 mg/kg, IV and 0.5 mg/kg, PO)
Dose Tmax aC0/Cmax T1/2 CL Vss
Matrix Route AUClast AUCinf (mL/min %F […]
a – Back extrapolated concentration in IV group.
Figure S17: Plasma concentrations-time profiles (mean ± SD) of Compound 36 in Male Sprague Dawley rats following a single intravenous and oral administration (Dose: 0.25 mg/kg, IV and 0.5 mg/kg, PO) […]
(1 picture or pasted object on this page, not shown here)

[3] = Oral dose escalation pharmacokinetics (10 and 100 mg/kg PO); assay type: in vivo, rat; details: for AUC(0-inf) / Cmax / Tlast / Tmax / half-life / concentration at 24 h: rat plasma, mean ± SD, n = 3; for concentration at 24 h: read-out: Clast
Experimental: as §1
Table S19. Summary of Pharmacokinetic Parameters (nmol/mL) for Compound 36 in Rat Plasma after a Single Oral
Dose of 36 at 10 mg/kg or 100 mg/kg
Dose Tmax Cmax Tlast Clast AUCinf t1/2
(mg/kg) (h) (nmol/mL) (h) (nmol/mL) (h*nmol/mL) (h)
Results are shown as averages and standard deviations (n = 3).
Figure S18. Average Concentrations (nmol/mL) of Compound 36 in Rat Plasma after a Single Oral Dose of 36 at 10
Left panel: Linear Scale, Right panel: Log Scale. Results are shown as averages and standard deviations (n = 3). […]

[4] = Rat liver microsome stability assay; details: 37 °C
Experimental: Metabolic Stability Assay
(§2) Liver Microsome Stability Assay Protocol
(§3) Human liver microsomes (HLMs, 20 mg/mL), CD-1 mouse liver microsomes (MLMs, 20 mg/mL), Sprague Dawley
(§4) rat liver microsomes (RLMs, 20 mg/mL) were purchased from Xenotech. NADPH was purchased from Sigma-
(§5) Aldrich and prepared in 10 mM stock solutions of distilled H2O (InvitrogenTM UltraPureTM). Verapamil and
(§6) diphenhydramine were both purchased from Sigma-Aldrich and served as positive controls for LM stability assays.
(§7) Test compounds and positive controls were initially dissolved in DMSO to make 10 mM stock solutions. Sample
(§8) solutions were then further diluted in 100% MeCN to 500 μM. Next, the reactions were prepared by mixing human
(§9) or mouse liver microsomes (55 μL) with potassium phosphate buffer (100 mM, 928 μL) in 1.5 mL Eppendorf tubes.
(§10) The test compounds (6.6 μL of 500 μM solution) were subsequently added to the suspensions, and the reaction
(§11) mixtures were incubated at 37 °C for 5 min. Afterward, the liver microsome reactions were initiated with 110 μL
(§12) of 10 mM NADPH and further incubated at 37 °C for the designated time course of the study. This procedure
(§13) provided experiments with a final volume of 1100 μL (0.6% organic solvent content) and a final test compound
(§14) concentration of 3 μM. Aliquots (100 μL) were removed from each reaction mixture in duplicate at 0, 5, 10, 15,
(§15) and 30 min time intervals and quenched with 100 μL of cold internal standard solution (ISTD, 2 μM
(§16) 7-ethoxy-d 5-coumarin in MeOH or MeCN). Quenched aliquots were then centrifuged at 12,500 g for 5-10 min, and
(§17) the resulting supernatants were withdrawn and placed in LC-MS vials to be analyzed by LC-MS/MS (Agilent
(§18) G6460C QQQ MS coupled with an Infinity II 1260 HPLC). Each test compound was run in tandem with positive and
(§19) negative control experiments for quality assurance. Positive control reactions were conducted at a final volume
(§20) of 550 μL for a single run of each time point. Lastly, the negative control experiment was conducted with test
(§21) compounds and liver microsomes in the absence of NADPH (150 μL) and analyzed at the 30 min time point.
(§22) Data Analysis. Each data point was analyzed in triplicate using in-between blank washes to avoid carry over and
(§23) to equilibrate the column for the subsequent runs. Averages of these triplicates for individual compounds at each
(§24) time point were then normalized to the data at 0 min, representing 100% test compound remaining or 0%
(§25) metabolism. Half-lives (t 1/2) were calculated by plotting ln of % test compound remaining versus time and
(§26) performing linear regression to determine slope.
(§27) Instrumentation and LC-MS/MS Method Development
(§28) LC-MS/MS analyses were conducted on an Agilent 1260 Infinity II HPLC equipped with an Agilent G6460 triple
(§29) quadrupole mass spectrometer (Agilent Technologies, USA). Reverse-phase HPLC separation for each compound
(§30) m) column maintained at 40 °C. The mobile phase used during analyses consisted of either MeOH-H2O (0.1% FA)
(§31) or MeCN-H2O (0.1% FA) at a flow rate of 0.5 mL/min. Each method was developed in the presence of the internal
(§32) standard (ISTD), 7-ethoxy-d 5-coumarin. Precursor and product ion detection was performed with Agilent Jet
(§33) Stream electrospray positive ionization (ESI+) in multiple reaction monitoring (MRM) mode. All MRM transitions,
(§34) MS conditions were as follows: dwell time of 100 ms; gas flow of 10 L/min; nebulizer pressure of 45 psi; delta EMV
(§35) of 200 V. Lastly, all acquired data was processed using Agilent 6460 Quantitative Analysis software.

[5] = Human liver microsome stability assay
Experimental: Metabolic Stability Assay
as §2, §3, §4, §5, §6, §7, §8, §9, §10, §11, §12, §13, §14, §15, §16, §17, §18, §19, §20, §21, §22, §23, §24, §25, §26, §27, §28, §29, §30, §31, §32, §33, §34, §35

[6] = Mouse liver microsome stability assay
Experimental: Metabolic Stability Assay
as §2, §3, §4, §5, §6, §7, §8, §9, §10, §11, §12, §13, §14, §15, §16, §17, §18, §19, §20, §21, §22, §23, §24, §25, §26, §27, §28, §29, §30, §31, §32, §33, §34, §35

N#Cc1ccccc1-c1cc(-c2cccc(Cl)c2)c(=O)n(-c2cccnc2)c1 [Compound 2]
IC50 (SARS-CoV-2 Mpro; literature value): 9.99 µM
improvement in potency over 1 (SARS-CoV-2 Mpro; relative to perampanel 1): 10 fold

O=c1[nH]cccc1-c1cn(-c2cc(Cl)cc(Cl)c2)c(=O)n(-c2cccnc2)c1=O [Compound 6]
IC50 (SARS-CoV-2 Mpro (3CLpro)): 0.276 µM and 0.28 µM
EC50 range in words [1]: sub-micromolar
EC50 [1]: 0.5 µM
CC50 (in vitro): > 100 µM

O=c1ccc(-c2cn(-c3cc(Cl)cc(Cl)c3)c(=O)n(-c3cccnc3)c2=O)c[nH]1 [Compound 7]
IC50 (SARS-CoV-2 Mpro (3CLpro)): 1.58 µM and 1.59 µM
EC50 [1]: > 20 µM
CC50 (in vitro): > 100 µM

O=c1[nH]cccc1-c1cn(-c2cc(Cl)cc(OCC3CC3)c2)c(=O)n(-c2cccnc2)c1=O [Compound 35]
IC50 (SARS-CoV-2 Mpro (3CLpro)): 0.1 µM
EC50 [1]: 0.82 µM
CC50 (in vitro): > 100 µM

O=c1[nH]cccc1-c1cn(-c2cc(Cl)cc(OCCC(F)(F)F)c2)c(=O)n(-c2cccnc2)c1=O [Compound 36]
IC50 (SARS-CoV-2 Mpro (3CLpro)): 0.055 µM
EC50 [1]: 1.35 µM
bioavailability ([2]; PO 0.5 mg/kg vs IV 0.25 mg/kg, read-out: %F (oral bioavailability)): 40.6% and 41%
AUC(0-inf) ([2]; IV 0.25 mg/kg): 1680 ng·h/mL
AUC(0-t) ([2]; IV 0.25 mg/kg): 1610 ng·h/mL
clearance ([2]; IV 0.25 mg/kg): 2.49 mL/min/kg
half-life ([2]; IV 0.25 mg/kg): 1.71 h
C0 ([2]; IV 0.25 mg/kg, read-out: C0 (back extrapolated concentration)): 1330 ng/mL
Vd ([2]; IV 0.25 mg/kg, read-out: Vss): 0.33 L/kg
AUC(0-inf) ([2]; PO 0.5 mg/kg): 1690 ng·h/mL
AUC(0-t) ([2]; PO 0.5 mg/kg): 1310 ng·h/mL
Cmax ([2]; PO 0.5 mg/kg): 285 ng/mL
Tmax ([2]; PO 0.5 mg/kg): 1.67 h
increase in AUC on 10-fold increase in dose ([3]; 10 mg/kg vs 100 mg/kg PO): 2 fold
AUC(0-inf) ([3]; PO 10 mg/kg): 23.2 ± 2.18 µM·h
Cmax ([3]; PO 10 mg/kg): 2610 ± 476 nM
Tlast ([3]; PO 10 mg/kg): 24.0 ± 0.00 h
Tmax ([3]; PO 10 mg/kg): 1.67 ± 0.577 h
half-life ([3]; PO 10 mg/kg): 2.68 ± 0.31 h
concentration at 24 h ([3]; PO 10 mg/kg): 12.6 ± 6.27 nM
AUC(0-inf) ([3]; PO 100 mg/kg): 49.9 ± 4.53 µM·h
Cmax ([3]; PO 100 mg/kg): 4130 ± 161 nM
Tlast ([3]; PO 100 mg/kg): 24.0 ± 0.00 h
Tmax ([3]; PO 100 mg/kg): 2.33 ± 1.53 h
half-life ([3]; PO 100 mg/kg): 3.73 ± 1.08 h
concentration at 24 h ([3]; PO 100 mg/kg): 114 ± 105 nM
CC50 (in vitro): > 100 µM
RLM percentage remaining after 30 min ([4]; 3 μM, 30 min): 86.4% and 86.41%
remaining at 5 min, 3 µM ([4]; Sprague-Dawley, rat, microsomes, RLM Rel % remaining, 5 min): 95.4%
remaining at 10 min, 3 µM ([4]; Sprague-Dawley, rat, microsomes, RLM Rel % remaining, 10 min): 90.9%
remaining at 0.25 h, 3 µM ([4]; Sprague-Dawley, rat, microsomes, RLM Rel % remaining, 15 min): 88.8%
half-life at 3 µM ([4]; Sprague-Dawley, rat, microsomes, RLM t1/2, 3 μM, unit inferred): > 0.5 h
HLM percentage remaining after 30 min ([5]; 3 μM, 37 °C, 30 min): 91.7% and 91.71%
half-life at 3 µM ([5]; human, microsomes): > 0.5 h
remaining at 5 min, 3 µM ([5]; human, microsomes): 98.2%
remaining at 10 min, 3 µM ([5]; human, microsomes): 97.7%
remaining at 0.25 h, 3 µM ([5]; human, microsomes): 98.2%
MLM percentage remaining after 30 min ([6]; 3 μM, 37 °C, 30 min): 73.3% and 73.26%
half-life at 3 µM ([6]; CD-1, mouse, microsomes): > 0.5 h
remaining at 5 min, 3 µM ([6]; CD-1, mouse, microsomes): 93.9%
remaining at 10 min, 3 µM ([6]; CD-1, mouse, microsomes): 90.1%
remaining at 0.25 h, 3 µM ([6]; CD-1, mouse, microsomes): 83.8%

O=c1[nH]cccc1-c1cn(-c2cc(Cl)cc(OCc3scnc3C(F)(F)F)c2)c(=O)n(-c2cccnc2)c1=O [Compound 37]
IC50 (SARS-CoV-2 Mpro (3CLpro)): 0.043 µM
EC50 [1]: 2.4 µM
CC50 (in vitro): > 100 µM

O=c1[nH]cccc1-c1cn(-c2cc(Cl)cc(OCc3nc4ccccc4n3C(F)F)c2)c(=O)n(-c2cccnc2)c1=O [Compound 38]
IC50 (SARS-CoV-2 Mpro (3CLpro)): 0.021 µM
EC50 [1]: 1.89 µM
CC50 (in vitro): > 100 µM

Cc1scnc1COc1cc(Cl)cc(-n2cc(-c3ccc[nH]c3=O)c(=O)n(-c3cccnc3)c2=O)c1 [Compound 39]
IC50 (SARS-CoV-2 Mpro (3CLpro)): 0.017 µM
EC50 [1]: 5 µM
CC50 (in vitro): > 100 µM
